In patent publication US9561228B2 (Celgene Avilomics Research, Inc., priority 2013, dated 2017) one finds EC50 data, which are given here for eight molecules.

In assay [1] the test system is ERK1/2 phosphorylation of p90RSK in HT29 cells. Briefly: pRSK MSD Assay in HT29 cells. It is filed as cell-based. Conditions: Homo sapiens, HT-29, read-out: ERK1/ERK2 PRSK MSD HT29 EC50. In a few lines: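 Phospho-RSK level, read by electrochemiluminescence on RSK-antibody-coated MSD plates with a phospho-RSK/Sulfo-tag detection pair, reports cellular ERK1/2 activity. HT29 cells, kept overnight in 0.1% FBS medium, were exposed to compound for 120 min at 37° C before lysis.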

In assay [2] the test system is ERK1/2 phosphorylation of p90RSK in A375 cells. Briefly: Detection of total and phosphor-RSK by MSD ELISA (A375). The format is cell-based. Conditions: Homo sapiens, A-375, read-out: ERK1/ERK2 PRSK A375 EC50. In a few lines:
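Electrochemiluminescent MSD ELISA: common RSK capture antibody, with pRSK Ser380 or total RSK detection antibodies plus SulfoTag secondaries. Samples were lysates of A375 cells exposed to compound for 2 h at 37° C after overnight culture in 0.1% FBS DMEM.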

Where only a bound is given, the exact number is not on record here.

With `C=CS(=O)(=O)Nc1cc(C)ccc1Nc1nc(Nc2cc(OC)ncc2C)ncc1C(F)(F)F` [Compound I-333, N-(2-((2-((2-methoxy-5-methylpyridin-4-yl)amino)-5-(trifluoromethyl)pyrimidin-4-yl)amino)-5-methylphenyl)ethenesulfonamide], the EC50 in assay [1] and in assay [2] was 101 to 500 nM in each case.

With `C=CC(=O)Nc1cc(OC)ccc1Nc1nc(Nc2cc(OC)nc(N3CCN(C)CC3)c2)ncc1C(F)(F)F` [Compound I-334, N-(5-methoxy-2-((2-((2-methoxy-6-(4-methylpiperazin-1-yl)pyridin-4-yl)amino)-5-(trifluoromethyl)pyrimidin-4-yl)amino)phenyl)acrylamide], the EC50 in assay [1] and in assay [2] was less than 100 nM each time.

For `C=CC(=O)Nc1cc(C)ccc1Nc1nc(Nc2cc(OC)nc(N(C)CCOC)c2)ncc1C(F)(F)F` [Compound I-336, N-(2-((2-((2-methoxy-6-((2-methoxyethyl)(methyl)amino)pyridin-4-yl)amino)-5-(trifluoromethyl)pyrimidin-4-yl)amino)-5-methylphenyl)acrylamide], the EC50 was less than 100 nM in assay [1] and 101 to 500 nM in assay [2].

With `C=CC(=O)Nc1cc(C)ccc1Nc1nc(Nc2cc(NC3CC3)nc(OC)c2)ncc1C(F)(F)F` [Compound I-337, N-(2-((2-((2-(cyclopropylamino)-6-methoxypyridin-4-yl)amino)-5-(trifluoromethyl)pyrimidin-4-yl)amino)-5-methylphenyl)acrylamide], the EC50 in assay [1] and in assay [2] was less than 100 nM each time.

In the case of `C=CC(=O)Nc1ccccc1Nc1nc(Nc2cc(OC)cc(OC)c2)ncc1C(F)(F)F` [Compound I-338, N-(2-((2-((3,5-dimethoxyphenyl)amino)-5-(trifluoromethyl)pyrimidin-4-yl)amino)phenyl)acrylamide], the EC50 in assay [1] and in assay [2] was less than 100 nM throughout.

On to `C=CC(=O)Nc1ccccc1Nc1nc(Nc2cc(OC)ccc2C)ncc1C(F)(F)F` [Compound I-340, N-(2-((2-((5-methoxy-2-methylphenyl)amino)-5-(trifluoromethyl)pyrimidin-4-yl)amino)phenyl)acrylamide], for which the EC50 in assay [1] and in assay [2] was less than 100 nM in each case.

In the case of `C=CC(=O)Nc1cc(C)ccc1Nc1nc(Nc2cc(OC)ccc2C)ncc1C(F)(F)F` [Compound I-341, N-(2-((2-((5-methoxy-2-methylphenyl)amino)-5-(trifluoromethyl)pyrimidin-4-yl)amino)-5-methylphenyl)acrylamide], the figures for the EC50 in assay [1] and in assay [2] were 101 to 500 nM and greater than 1000 nM, respectively.

As for `C=CC(=O)Nc1cc(C)ccc1Nc1nc(Nc2cc(OC)nc(N(C)C3CC3)c2)ncc1C(F)(F)F` [Compound I-342, N-(2-((2-((2-(cyclopropyl(methyl)amino)-6-methoxypyridin-4-yl)amino)-5-(trifluoromethyl)pyrimidin-4-yl)amino)-5-methylphenyl)acrylamide], the EC50 in assay [1] and in assay [2] was 101 to 500 nM throughout.
